Where “and” joins values, the source holds several entries; their conditions need not be identical. Identical values can stand only once. Entries after “also recorded” stand apart in the source; their conditions may differ.
What was measured:
[1] = test system: mobilization of bone calcium; test: Bone calcium mobilization (serum calcium) in vitamin D-deficient rats; format: in vivo, rat; conditions: serum calcium 24 hours after last dose, zero calcium diet, FIG. 3
Experimental: Blood serum calcium was measured 24 hours following the last dose in the rats as described in FIG. 2. Values represent mean±standard error.
(§1) The intestinal calcium transport and bone mobilization studies were carried out as described by Sicinski et al. (J. Med. Chem. 41, 4662–4674, 1998) and Suda et al. (J. Nutr. 100, 1049–1052, 1970).
The in vivo tests of increasing serum calcium of rats on a zero calcium diet provides an insight to […] or bone activity of 2MD.

Rhesus monkeys = test: Serum calcium after single oral bolus dose in Rhesus monkeys; format: in vivo, Rhesus monkey; parameters: dose or concentration left out as unconfirmed; conditions: 24 hours after dose, FIG. 10
Experimental: FIG. 10 is a line graph illustrating the blood serum calcium levels 24 hours after dose in Rhesus monkeys given a single oral bolus dose of 2-methylene-19-nor-20(S)-1α,25-dihydroxyvitamin D3 (2MD) at varying concentrations;
These and other tests indicate that primates will tolerate 2MD extremely well which may give a very large window between efficacy and the danger of hypercalcemia in man.

[2] = test system: HL-60 promyelocytic cells; test: HL-60 cell differentiation into monocytes; format: cell-based; conditions: FIG. 5
Experimental: The differentiation of HL-60 promyelocytic cells into monocytes was determined as described by Ostrem et al. (J. Biol. Chem. 262, 14164–14171, 1987).

[3] = biological target: T1, full length recombinant rat receptor (nuclear vitamin D receptor) (Rattus norvegicus, UniProt P13053); test: Competitive binding of [3H]-1α,25-(OH)2-D3 to full length recombinant rat vitamin D receptor; conditions: FIG. 1
T1 construct: the full length recombinant rat receptor
T1 sequence (P13053 1-423): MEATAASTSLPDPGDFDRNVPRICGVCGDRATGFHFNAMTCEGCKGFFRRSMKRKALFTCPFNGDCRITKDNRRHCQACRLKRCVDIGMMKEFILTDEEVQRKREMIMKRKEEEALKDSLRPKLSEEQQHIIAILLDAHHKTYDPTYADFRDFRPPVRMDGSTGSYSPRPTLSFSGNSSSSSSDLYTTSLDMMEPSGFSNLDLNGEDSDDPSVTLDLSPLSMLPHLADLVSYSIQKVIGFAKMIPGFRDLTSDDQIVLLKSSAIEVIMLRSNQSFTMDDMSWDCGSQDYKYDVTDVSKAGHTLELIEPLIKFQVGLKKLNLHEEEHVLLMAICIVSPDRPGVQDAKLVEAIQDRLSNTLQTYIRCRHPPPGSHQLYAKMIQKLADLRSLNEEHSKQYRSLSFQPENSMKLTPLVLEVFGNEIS

[4] = test system: intestinal calcium transport; test: Intestinal calcium transport in vitamin D-deficient rats (everted gut sac); format: in vivo, rat; conditions: oral gavage 7 consecutive days, FIG. 2
Experimental: Values represent means±standard error.
as §1

[5] = test system: ovariectomized old female rats; test: Treatment of ovariectomized old female rats (bone mass, serum calcium, femur ash); format: in vivo, rat; conditions: doses of Table 1
Description: Values in the figure are mean±standard error.

[6] = test system: normal adult female Sprague-Dawley rats; test: Building bone mass in normal adult female rats (BMD, body weight, serum calcium); format: in vivo, rat; conditions: 2.5 ng/kg/d oral
Experimental: All 7-month old, nulliparous female, Sprague-Dawley rats (Harlan Sprague-Dawley, Madison, Wis.) were sham-operated at 7 months of age.
Beginning with arrival in the facility, rats were fed a purified rodent diet (“Diet 11”) prepared in-house (Suda et al, 1970, J. Nutr., 100:1049–1052) and containing 0.47% calcium, 0.3% phosphorus and 1.6 IU vitamin D3/g. To maintain consistent body weights (monitored weekly), rats were fed a total of 150 g diet/week, i.e. 21.5 g/day/rat.
Rats were dosed daily beginning 5–6 weeks post-surgery. Neobee oil (vehicle) or 2MD were delivered to the back of the tongue in 100 μL. The dosing solution concentrations were adjusted monthly based on group-average body weights.
At predose and at 1, 2, 4, 6, 10, 11, 18 and 25 weeks after dose, blood was collected 24 hr. after the most recent dose from the tail artery of ether-anesthetized rats. Serum was diluted in 0.1% lanthum chloride and the concentration of calcium determined by atomic absorption spectrometry. The values shown are averages for all rats, and include standard errors.
Both total body BMD and appendicular (right distal and proximal femur) BMD were determined by dual-energy X-ray absorptiometry (Lunar DPXα-Madison, Wis.; Small Animal Software-version 1.0e) at weeks 0, 8, 16, and 24. Appendicular BMD was performed as described (Haffa et al, 2000, J. Bone Min. Res. 15:872). The values shown are averages for all rats and include standard errors.

For `C=C1[C@H](O)CC(=C/C=C2\CCC[C@]3(C)[C@@H]([C@@H](C)CCCC(C)(C)O)CC[C@@H]23)C[C@H]1O` [2MD, 2-methylene-19-nor-20(S)-1α,25-dihydroxyvitamin D3], the “potency relative to 1,25(OH)2D3 in mobilization of bone calcium” value [1] was 100 times and 80–100 times, the “elevation of serum calcium concentration” value (Rhesus monkeys) was “does not cause significant elevation” and the “potency relative to 1,25(OH)2D3 on HL-60 cell differentiation” value [2] was 10–50 times. For the same molecule, the “binding to the receptor as compared to the standard 1,25-(OH)2D3” value [3] was “bound equally well; also recorded: about as active as 1,25(OH)2D3”, the “intestinal calcium transport activity compared with 1,25(OH)2D3” value [4] was “activity similar to that of 1,25-dihydroxyvitamin D3; also recorded: approximately equal” and the “change in serum calcium at dosage levels that elevated bone mass” value [5] was “no change in serum calcium”. For the same molecule, the “increase in cancellous bone BMD” value ([6]; 24 weeks, FIG. 12A) was 14%, the “increase in cortical bone” value ([6]; FIG. 12B) was 6% and the “change in body weight” value ([6]; FIG. 13A) was “absence of any change”. The “change in serum calcium” value ([6]; FIG. 13B) was “absence of any change” and the “total body BMD versus vehicle control” value ([6]; from 8 to 24 weeks, FIG. 11) was “increased above vehicle-control animals”.

From patent publication US7214671B2, “Use of 2-methylene-19-nor-20(S)-1α,25-dihydroxyvitamin D3 for the prophylaxis of bone diseases” (Wisconsin Alumni Research Foundation, priority 2004, dated 2007)
